Reference: EP0819136B1, “MDP DERIVATIVES AND CONJUGATES HAVING HAEMATOPOIETIC FUNCTION STIMULATING ACTIVITY, AND COMPOSITIONS CONTAINING SAME” (VACSYN S.A., priority 1995, dated 1996)

Tests used:
[1] = system: globules rouges et les plaquettes; assay: Red blood cell and platelet counts after 7 days of oral AZT, Muradimétide or both (Example 3, figures 9 and 10); format: in vivo, souris femelles BALB/c; conditions: p.o. once daily for 7 days: 100 mg/kg AZT, 50 mg/kg muradimétide, or both simultaneously; counts up to day 10
Text: La figure 9 représente l'effet du traitement per os de souris BALB/c pendant 7 jours consécutifs avec de l'AZT, du Muradimétide (MDM) ou un mélange de ceux-ci sur la numération plaquettaire.
La figure 10 représente l'effet du traitement per os de souris BALB/c pendant 7 jours consécutifs avec de l'AZT, du Muradimétide (MDM) ou un mélange de ceux-ci sur le nombre des globules rouges.
L'effet d'un traitement de 7 jours sur le nombre de globules rouges et de plaquettes est indiqué dans les figures 9 et 10 respectivement. Les numérations sont représentées en pourcentage de celles obtenues au jour 0. Des souris femelles BALB/c (5 par groupe) sont traitées une fois par jour pendant 7 jours consécutifs par 100 mg/kg d'AZT (Δ), 50 mg/kg de muradimétide (D) ou simultanément par 100 mg/kg d'AZT et 50 mg/kg de muradimétide (O). Les comptages de plaquettes ou de globules rouges ont été réalisés au jour 0 et jusqu'à 10 jours suivant le début du traitement. […] La tendance à l'augmentation de leur nombre apparaît entre les jours 4 et 5. En revanche, l'anémie qui pourrait être observée dans les groupes traités pourrait être due aux saignements répétés; néanmoins la vitesse et l'importance de l'anémie est grandement réduite chez les animaux traités avec le mélange des deux produits en comparaison avec celui observé dans le groupe traité par l'AZT seul. […]

[2] = system: myélocytes circulants; assay: Circulating myelocytes 24 h after 4 daily oral administrations of AZT and/or Muradimétide (Example 4, Table 3); format: in vivo, souris; conditions: for Nbre de myélocytes circulants: 24 h after 4 daily administrations
Experimental: Le tableau 3 ci-dessous et la figure 11 indiquent l'effet d'un traitement per os des souris avec du Muradimétide avant, en même temps ou après l'AZT administré à 50 mg par kg, sur le nombre de myélocytes circulants testés 24 heures après 4 administrations quotidiennes. Tableau 3
Le nombre moyen de myélocytes circulant avant le traitement se situe entre 3 et 15 X 10^4 cellules par ml dans les 5 groupes.
La « P-value » a été calculée par le test Mann Whitney U Rank.
NS signifie que la différence n'est pas significative. Ce tableau confirme que l'augmentation des myélocytes circulants est d'environ 200 quand il y a effet conjoint de l'AZT et du Muradimétide. Les deux constituants de la combinaison ont été administrés per os soit simultanément soit à des temps séparés.

[3] = system: leucocytes circulants normaux (majoritairement neutrophiles et lymphocytes) et immatures (myélocytes); assay: Circulating blood cell counts in mice after 4 consecutive days of i.v. Muradimétide alone (Example 1); format: in vivo, souris; conditions: for Nbre de Leucocytes / Nbre de Lymphocytes / Nbre de Myélocytes / Nbre de Neutrophiles: Muradimétide 25 mg/kg i.v., 4 consecutive days
Experimental: Le tableau 1 ci-dessous représente les numérations des leucocytes, neutrophiles, lymphocytes et myélocytes en fonction du temps après traitement par le Muradimétide seul administré à la dose de 25 mg/kg. Le traitement est effectué pendant 4 jours consécutifs par injection intraveineuse.
Effet de 4 jours de traitement consécutifs des souris par voie veineuse avec le Muradimétide (25 mg/kg) sur les modifications du nombre de leucocytes circulants normaux (majoritairement neutrophiles et lymphocytes) et immatures (myélocytes).

[4] = system: neutrophiles, leucocytes et myélocytes; assay: Blood cell counts in mice given i.v. AZT 40 mg/kg plus Muradimétide i.v. or p.o. (Example 2); format: in vivo, souris CDI mâles
Experimental: Le traitement par l'AZT seul induit classiquement une diminution du nombre des leucocytes et des neutrophiles circulants. Cette diminution est suivie par une reconstitution intervenant environ 4 à 7 jours après le début du traitement. Quand le Muradimétide a été administré par voie générale ou par la voie orale après un traitement par 40 mg/kg d'AZT, il n'y a pas de baisse du nombre de cellules et au contraire il y a une multiplication par au moins 1,5 du nombre de leucocytes et un triplement de celui des neutrophiles et cela dès après 4 jours. Les résultats sont représentés dans le tableau 2 ci-dessous.
Des souris CDI mâles (5 par groupe) ont été injectées avec de l'AZT à la dose de 40 mg par kg aux jours 0 à 3. Le Muradimétide est administré les mêmes jours à la dose de 10 mg par kg en intraveineux ou de 50 mg par kg per os. Les comptages cellulaires sont réalisés au jour 0 (avant le traitement), et aux jours 3 et 4. Tableau 2

[5] = AZT 40 mg/kg i.v. days 0-3 + Muradimétide i.v. 10mg/kg days 0-3, day 0 (before treatment)
[6] = AZT 40 mg/kg i.v. days 0-3 + Muradimétide i.v. 10mg/kg days 0-3, day 3
[7] = AZT 40 mg/kg i.v. days 0-3 + Muradimétide i.v. 10mg/kg days 0-3, day 4
[8] = AZT 40 mg/kg i.v. days 0-3 + Muradimétide p.o 50 mg/Kg days 0-3, day 0 (before treatment)
[9] = AZT 40 mg/kg i.v. days 0-3 + Muradimétide p.o 50 mg/Kg days 0-3, day 3
[10] = AZT 40 mg/kg i.v. days 0-3 + Muradimétide p.o 50 mg/Kg days 0-3, day 4
[11] = Muradimétide by general or oral route after AZT 40 mg/kg, after 4 days

Compound: COC(=O)CC[C@@H](NC(=O)[C@H](C)NC(=O)[C@@H](C)O[C@H]1[C@H](O)[C@@H](CO)OC(O)[C@@H]1NC(C)=O)C(=O)OC (stereo partly drawn) [Muradimétide, Nac-Mur-L-Ala-D-Glu-[OCH3]-OCH3]
- toxicité sur les plaquettes [1]: Aucune toxicité
- Nbre de myélocytes circulants ([2]; AZT 50mg/Kg p.o. at 0 h + Muradimetide 25mg/Kg p.o. at 0 h): 215 ± 51 x 10^4/ml
- Nbre de myélocytes circulants ([2]; AZT 50mg/Kg p.o. at 0 h + Muradimetide 25mg/Kg p.o. at -4 h): 194 ± 50 x 10^4/ml
- Nbre de myélocytes circulants ([2]; AZT 50mg/Kg p.o. at -4 h + Muradimetide 25mg/Kg p.o. at 0 h): 187 ± 42 x 10^4/ml
- Nbre de myélocytes circulants ([2]; Muradimetide 25mg/Kg p.o. alone at 0 h): 17 ± 15 x 10^4/ml
- augmentation des myélocytes circulants ([2]; joint effect of AZT 50 mg/kg and Muradimétide 25 mg/kg p.o., simultaneously or at separate times): ~200
- Nbre de Leucocytes ([3]; day 0): 50 ± 14° x 10^5/ml
- Nbre de Lymphocytes ([3]; day 0): 38±12 x 10^5/ml
- Nbre de Myélocytes ([3]; day 0): 7 ± 6 x 10^4/ml
- Nbre de Neutrophiles ([3]; day 0): 11±3 x 10^5/ml
- Nbre de Leucocytes ([3]; day 2): 52±12 x 10^5/ml
- Nbre de Lymphocytes ([3]; day 2): 41 ± 17 x 10^5/ml
- Nbre de Myélocytes ([3]; day 2): 8±8 x 10^4/ml
- Nbre de Neutrophiles ([3]; day 2): 10±3 x 10^5/ml
- Nbre de Leucocytes ([3]; day 3): 52 ± 17 x 10^5/ml
- Nbre de Lymphocytes ([3]; day 3): 35 ± 13 x 10^5/ml
- Nbre de Myélocytes ([3]; day 3): 40±5 x 10^4/ml
- Nbre de Neutrophiles ([3]; day 3): 13 ± 5 x 10^5/ml
- Nbre de Leucocytes ([3]; day 4): 52 ± 15 x 10^5/ml
- Nbre de Lymphocytes ([3]; day 4): 34 ± 8 x 10^5/ml
- Nbre de Myélocytes ([3]; day 4): 72 ± 27 x 10^4/ml
- Nbre de Neutrophiles ([3]; day 4): 12 ± 4 x 10^5/ml
- Nbre de Leucocytes ([3]; day 7): 50±13 x 10^5/ml
- Nbre de Lymphocytes ([3]; day 7): 38±10 x 10^5/ml
- Nbre de Myélocytes ([3]; day 7): 4 ± 4 x 10^4/ml
- Nbre de Neutrophiles ([3]; day 7): 12±4 x 10^5/ml
- nombre de myélocytes circulants (result in words) ([3]; Muradimétide alone 25 mg/kg i.v., days 3 and 4): augmentation du nombre de myélocytes circulants qui est hautement significative
- pourcentage de myélocytes ou de promyélocytes (result in words) ([4]; AZT 40 mg/kg i.v. + Muradimétide, whatever the route of administration): augmentation spectaculaire
- Leucocytes [4, 5]: 6.0 ± 3.4 x 10^6/ml
- Myelocytes [4, 5]: 5 ± 7 x 10^4 /ml
- Neutrophiles [4, 5]: 2.0 ± 1.3 x 10^6 /ml
- Leucocytes [4, 6]: 5.9 ± 2.9 x 10^6/ml
- Myelocytes [4, 6]: 145 ± 83 x 10^4 /ml
- Neutrophiles [4, 6]: 1.5 ± 0.8 x 10^6 /ml
- Leucocytes [4, 7]: 7.6 ± 1.6 x 10^6/ml
- Myelocytes [4, 7]: 117 ± 46 x 10^4 /ml
- Neutrophiles [4, 7]: 4.6 ±1.5 x 10^6 /ml
- Leucocytes [4, 8]: 4.8 ± 0.4 x 10^6/ml
- Myelocytes [4, 8]: 14 ± 13 x 10^4 /ml
- Neutrophiles [4, 8]: 1.4 ± 0.5 x 10^6 /ml
- Leucocytes [4, 9]: 6.1 ± 1.4 x 10^6/ml
- Myelocytes [4, 9]: 123 ± 55 x 10^4 /ml
- Neutrophiles [4, 9]: 1.6 ± 0.5 x 10^6 /ml
- Leucocytes [4, 10]: 8.1 ± 2.9 x 10^6/ml
- Myelocytes [4, 10]: 138 ± 59 x 10^4 /ml
- Neutrophiles [4, 10]: 4.3 ± 2.47 x 10^6 /ml
- multiplication du nombre de leucocytes [4, 11]: ≥ 1,5
- nombre de neutrophiles (fold change) [4, 11]: triplement
